Key:
Prunus dulcis = test: Inhibition of sweet almond beta-glucosidase using p-nitrophenyl glycoside as substrate assessed as residual activity at 1 mM after 25 mins by spectrophotometer analysis
[1] = biological target: Alpha-galactosidase (Coffea arabica) (UniProt Q42656); test: Inhibition of green coffee bean alpha-galactosidase using p-nitrophenyl glycoside as substrate assessed as residual activity at 1 mM after 25 mins by spectrophotometer analysis
Canavalia ensiformis = test: Inhibition of jack bean alpha-mannosidase using p-nitrophenyl glycoside as substrate assessed as residual activity at 1 mM after 25 mins by spectrophotometer analysis
[2] = biological target: Beta-galactosidase (Escherichia coli) (UniProt Q8VNN2); test: Inhibition of Escherichia coli beta-galactosidase using p-nitrophenyl glycoside as substrate assessed as residual activity at 1 mM after 25 mins by spectrophotometer analysis
[3] = tested on: Geobacillus stearothermophilus; test: Inhibition of Bacillus stearothermophilus alpha-glucosidase using p-nitrophenyl glycoside as substrate assessed as residual activity at 1 mM after 25 mins by spectrophotometer analysis
Helix pomatia = test: Inhibition of Helix pomatia beta-mannosidase using p-nitrophenyl glycoside as substrate assessed as residual activity at 1 mM after 25 mins by spectrophotometer analysis
[4] = Competitive inhibition of sweet almond beta-glucosidase using p-nitrophenyl glycoside as substrate by Lineweaver-Burk plot analysis; design: species or system Prunus dulcis
Alpha-galactosidase = Alpha-galactosidase (Coffea arabica, UniProt Q42656); test: Competitive inhibition of green coffee bean alpha-galactosidase using p-nitrophenyl glycoside as substrate by Lineweaver-Burk plot analysis
Chain of Alpha-galactosidase (Q42656 whole entry): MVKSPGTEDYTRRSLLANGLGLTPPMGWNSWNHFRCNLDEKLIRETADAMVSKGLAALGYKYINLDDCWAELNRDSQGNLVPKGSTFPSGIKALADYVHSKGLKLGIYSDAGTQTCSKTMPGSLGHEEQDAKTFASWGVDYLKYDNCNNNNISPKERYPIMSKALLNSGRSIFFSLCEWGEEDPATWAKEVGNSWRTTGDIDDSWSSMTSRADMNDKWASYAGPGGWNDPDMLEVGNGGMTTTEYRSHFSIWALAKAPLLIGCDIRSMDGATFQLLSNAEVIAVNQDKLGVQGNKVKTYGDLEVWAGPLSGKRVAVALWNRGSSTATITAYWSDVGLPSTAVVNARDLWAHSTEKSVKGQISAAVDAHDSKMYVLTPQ

Chain of Beta-galactosidase (Escherichia coli) (Q8VNN2 whole entry, looked up): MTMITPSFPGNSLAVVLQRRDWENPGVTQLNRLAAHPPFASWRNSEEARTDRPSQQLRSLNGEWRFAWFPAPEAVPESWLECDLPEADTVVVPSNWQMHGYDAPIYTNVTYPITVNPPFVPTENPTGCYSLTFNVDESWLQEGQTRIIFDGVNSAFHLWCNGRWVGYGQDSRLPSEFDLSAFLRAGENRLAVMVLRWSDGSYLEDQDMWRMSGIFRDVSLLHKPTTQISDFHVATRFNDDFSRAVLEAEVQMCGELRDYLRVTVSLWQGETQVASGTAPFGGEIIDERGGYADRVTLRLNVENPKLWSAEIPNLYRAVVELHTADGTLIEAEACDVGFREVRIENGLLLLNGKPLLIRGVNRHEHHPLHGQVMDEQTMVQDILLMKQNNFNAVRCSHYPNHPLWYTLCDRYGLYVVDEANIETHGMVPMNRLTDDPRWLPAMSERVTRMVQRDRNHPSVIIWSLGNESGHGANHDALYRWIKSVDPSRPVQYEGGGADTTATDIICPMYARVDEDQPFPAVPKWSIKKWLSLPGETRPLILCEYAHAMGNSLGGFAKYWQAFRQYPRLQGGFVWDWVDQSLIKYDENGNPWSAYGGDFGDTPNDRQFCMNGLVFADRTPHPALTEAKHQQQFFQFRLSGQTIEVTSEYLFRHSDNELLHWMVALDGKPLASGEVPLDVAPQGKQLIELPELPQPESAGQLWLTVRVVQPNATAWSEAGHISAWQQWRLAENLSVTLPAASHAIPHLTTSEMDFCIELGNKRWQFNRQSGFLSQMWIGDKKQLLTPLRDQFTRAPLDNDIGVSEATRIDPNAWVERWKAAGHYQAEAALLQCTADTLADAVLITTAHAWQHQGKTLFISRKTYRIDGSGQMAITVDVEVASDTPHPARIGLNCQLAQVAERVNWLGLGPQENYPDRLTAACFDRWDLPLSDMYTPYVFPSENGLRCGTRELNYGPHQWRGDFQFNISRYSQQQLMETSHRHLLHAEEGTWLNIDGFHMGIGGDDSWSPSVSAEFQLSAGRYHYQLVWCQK
Chain of Alpha-galactosidase (Coffea arabica) (Q42656 16-378 limits assumed): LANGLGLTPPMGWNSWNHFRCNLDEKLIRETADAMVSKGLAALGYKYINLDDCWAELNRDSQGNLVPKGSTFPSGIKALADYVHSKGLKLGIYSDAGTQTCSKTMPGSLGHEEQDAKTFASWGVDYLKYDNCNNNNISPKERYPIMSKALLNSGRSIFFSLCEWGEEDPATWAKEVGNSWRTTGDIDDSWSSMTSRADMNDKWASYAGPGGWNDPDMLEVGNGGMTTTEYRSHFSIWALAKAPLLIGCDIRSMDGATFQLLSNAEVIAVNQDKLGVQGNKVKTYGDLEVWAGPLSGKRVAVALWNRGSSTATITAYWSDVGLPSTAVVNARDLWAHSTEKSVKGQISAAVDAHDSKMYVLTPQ

| SMILES | Activity (Prunus dulcis) | Activity [1] | Activity (Canavalia ensiformis) | Activity [2] | Activity [3] | Activity (Helix pomatia) | Ki [4] | Ki (Alpha-galactosidase) |
| --- | --- | --- | --- | --- | --- | --- | --- | --- |
| OC[C@@H]1C[C@H](O)[C@@H](CO)N1 | 1.7% | 50.4% | 102% | 53.5% | 12.8% | 97% | 29.2 µM | – |
| O=C1OC[C@@H]2C[C@H](O)[C@@H](CO)N12 | 75.7% | 5.4% | 72.2% | 109% | 39.1% | 98.7% | – | 40.8 µM |
| O=C(O)[C@@H]1C[C@H](O)[C@@H](CO)N1 | 115% | 95.2% | 82% | 90.7% | 110% | 99.3% | – | – |

Further lines, results first:

| Activity (Prunus dulcis) | Activity [1] | Activity (Canavalia ensiformis) | Activity [2] | Activity [3] | Activity (Helix pomatia) | Ki [4] | Ki (Alpha-galactosidase) | SMILES |
| --- | --- | --- | --- | --- | --- | --- | --- | --- |
| 83.6% | 107% | 83.9% | 55.8% | 97.1% | 93.7% | – | – | O=C(NCCP(=O)(O)O)[C@@H]1C[C@H](O)[C@@H](CO)N1 |
| 96.1% | 91.9% | 76.8% | 114% | 97% | 100% | – | – | O=P(O)(O)OC[C@@H]1C[C@H](O)[C@@H](CO)N1 |

— ChEMBL document CHEMBL3132787, “Polyhydroxylated pyrrolidine and 2-oxapyrrolizidine as glycosidase inhibitors” (Medchemcomm, 2013)
